Assay results as given in paper PMC12040169 (PLOS Biology, 2025).

Assay: in vitro
Conditions: human, hela cells, % viability

SMILES | viability at 28.5 h, 10 µM
CCC1CN(CC(=O)NCc2ccc(OCC(N)=O)cc2)CCO1 (stereo not drawn) [CBK305774] | 102%
Cc1nc(C(F)(F)F)ccc1C(=O)Nc1nc(CC(N)=O)cs1 [CBK305776] | 100%
CC(C)(C)c1cnc(C(=O)NC2CCCN(c3ncccn3)C2)o1 (stereo not drawn) [CBK305777] | 92.3%
O=C(CCn1cc(Br)ccc1=O)NC1CCN(Cc2ccccc2)CC1 [CBK305778] | 101%
Cc1cc(CN(C)C(=O)Cc2csc(NC(=O)c3ccoc3C)n2)no1 [CBK305779] | 102%
CC(Oc1cccc(C#N)c1)C(=O)NCC1(N2CCOCC2)CCSC1 (stereo not drawn) [CBK305780] | 94.8%
Cc1noc(C)c1CN1CCC(C(O)c2ccccc2)CC1 (stereo not drawn) [CBK305783] | 93.9%
OC1CCN(CC(O)Cn2c3ccccc3c3ccccc32)CC1 (stereo not drawn) [CBK305784] | 100%
Cc1nc(-c2cccnc2)[nH]c(=O)c1CC(=O)N(C)CC1CCCCC1 [CBK305785] | 91.4%
COc1ccccc1CN(C(=O)Nc1ccc(S(C)(=O)=O)cc1)C1CC1 [CBK305787] | 90.9%
COc1ccc(C)cc1-n1ccc(C(=O)NC(C)(C)C(N)=O)n1 [CBK305789] | 94.1%
CC(C)CN1CCC(NC(=O)c2csc(-c3cnn(C)c3)n2)CC1 [CBK305790] | 97.2%
Cn1cnnc1C1CCCN(C(=O)NCc2cccc(F)c2)C1 (stereo not drawn) [CBK305792] | 101%
CCC1CN(C(=O)Cn2cnc3ccc(F)cc3c2=O)CCO1 (stereo not drawn) [CBK305795] | 92.4%
Cc1cc(C)n(-c2ccc(CN3C(=O)NC4(CCCC4)C3=O)cc2)n1 [CBK305796] | 88.3%
CC(NS(=O)(=O)c1ccccc1Cl)C(=O)N1CCCCC1C (stereo not drawn) [CBK305797] | 93.9%
COc1cccc(NC(=O)CN2CCC(NC(=O)c3cccs3)CC2)c1 [CBK305800] | 96.3%
CCC1CCCN(C(=O)Cc2c(C)nc(-c3cccnc3)[nH]c2=O)C1 (stereo not drawn) [CBK305801] | 91.7%
Cc1cccn2c(=O)cc(CN3CCC(c4cnn(C)c4)CC3)nc12 [CBK305806] | 101%
Cc1sc2[nH]c(CCC(=O)N3CCCC(C)CC3)nc(=O)c2c1C (stereo not drawn) [CBK305807] | 103%
COc1ccnc(N2CCN(Cc3nnnn3C3CC3)CC2)n1 [CBK305808] | 85.6%
CC(c1ccc(F)c(F)c1)N(C)C(=O)Cn1[nH]c(=O)ccc1=O (stereo not drawn) [CBK305810] | 81.2%

SMILES | viability at 28.5 h, 10 µM
Cc1noc(C)c1CN1CCC(Oc2ccccc2)CC1 [CBK305811] | 89.6%
NC(=O)NC(CC(=O)N1CCc2sccc2C1)c1cccc(Br)c1 (stereo not drawn) [CBK305813] | 95%
O=C(NC1CCCCC1)C1CCCN(C(=O)NCc2ccccn2)C1 (stereo not drawn) [CBK305814] | 114%
CCc1nc(CN2CCN(C(=O)Nc3ccccc3C)CC2)cs1 [CBK305817] | 87.5%
c1ccc(C(NCc2nnc(-c3ccco3)o2)C2CCC2)cc1 (stereo not drawn) [CBK305818] | 84.7%
CC(NC(=O)CCC1CCCC1)c1nc(-c2ccncc2)cs1 (stereo not drawn) [CBK305819] | 86.9%
CCOC(=O)c1cccc(S(=O)(=O)NC(C)Cn2cncn2)c1 (stereo not drawn) [CBK305820] | 95.9%
CN(C)CC1CN(c2nc(-c3ccncc3)nc3c2CCC3)CCO1 (stereo not drawn) [CBK305824] | 83%
Cc1cccc(OCCNC(=O)CN2CCCC2c2cnn(C)c2)c1 (stereo not drawn) [CBK305826] | 81%
CC1CCCCC12NC(=O)N(Cc1csc(-c3cccs3)n1)C2=O (stereo not drawn) [CBK305829] | 98.4%
Cc1sc2ncn(CC(=O)NCCCN3CCCCC3)c(=O)c2c1C [CBK305831] | 96.7%
CCC1CCCCN1C(=O)Cn1cnc2c(Cl)cc(Cl)cc2c1=O (stereo not drawn) [CBK305833] | 90%
CCN(CC(=O)NCc1ccc(Cl)cc1)S(=O)(=O)c1ccc(OC)cc1 [CBK305836] | 92.6%
COc1ccccc1CN(C)C(C)C(=O)Nc1ccc(S(N)(=O)=O)cc1 (stereo not drawn) [CBK305839] | 90.1%
CC(C(=O)Nc1ccc(S(N)(=O)=O)cc1)N(C)Cc1ccccc1F (stereo not drawn) [CBK305840] | 105%
CCN(CC(=O)NCc1ccc(F)cc1)S(=O)(=O)c1ccccc1C#N [CBK305842] | 91.1%
CCCn1c(SCC(=O)N2CCc3ccccc32)nc(O)cc1=O [CBK305843] | 95.4%
CCn1cc(C(=O)N2CCC(C(=O)OC)CC2)c(=O)c2ccc(C)nc21 [CBK305848] | 110%
CCN(CC(=O)NC(C)C)Cc1csc(-c2ccc(F)cc2)n1 [CBK305849] | 117%
COCCn1c(SCC(=O)N2CCNC2=O)nc2ccccc21 [CBK305851] | 97.3%
Cc1cc(C)n(CCCNC(=O)Cn2cnc3sc(C)c(C)c3c2=O)n1 [CBK305852] | 76.2%
Cc1ccnc2nc(C(=O)OCC(=O)Nc3ccc4c(c3)CCC4)nn12 [CBK305853] | 82.1%

SMILES | viability at 28.5 h, 10 µM
CCCC(=O)Nc1ccc(-c2csc(NC(=O)C3CCCO3)n2)cc1 (stereo not drawn) [CBK305854] | 77.8%
Cc1ccccc1Nc1nc(N)nc(CN2CC(C)OC(C)C2)n1 (stereo not drawn) [CBK305856] | 105%
O=C(CSc1nnnn1C1CC1)Nc1ccc(CN2CCOCC2)cc1 [CBK305857] | 99.2%
O=C1NC2(CCCCCC2)C(=O)N1Cc1coc(-c2cccs2)n1 [CBK305858] | 94.2%
CS(=O)(=O)N1CCCc2cc(-c3csc(N)n3)ccc21 [CBK305859] | 86.4%
CCCNC(=O)Cn1cnc2sc(C)c(C)c2c1=O [CBK305863] | 88.8%
CCn1c(SCC(=O)NC2CC2)nc2ccccc21 [CBK305864] | 117%
Cc1c(C(C)N)cnn1-c1ccc(C#N)cc1 (stereo not drawn) [CBK305869] | 80.9%
Cc1cc2nc(NCC3CCCO3)c3ccccc3n2n1 (stereo not drawn) [CBK305871] | 99.6%
O=C(Cn1cnc2c(Cl)cc(Cl)cc2c1=O)N1CCCCCC1 [CBK305874] | 92%
Cc1ccnc(NC(=O)C2CCCN(C(=O)OC(C)(C)C)C2)c1 (stereo not drawn) [CBK305875] | 82.7%
CC1CCC(N(C)Cc2nc3sc4c(c3c(=O)[nH]2)CCC4)CC1 (stereo not drawn) [CBK305876] | 88.7%
COc1ccc(C)cc1CC(=O)N1CCc2c(sc3ncnc(N)c23)C1 [CBK305878] | 83.4%
O=C(Cn1ccc(=O)[nH]c1=O)Nc1ccc(OCC(F)(F)F)cc1 [CBK305879] | 98%
CCc1nn2c(=O)cc(CN3C(=O)NC(C)(c4ccco4)C3=O)nc2s1 (stereo not drawn) [CBK305880] | 114%
COc1ccc(CCNC(=O)CCn2cncn2)cc1 [CBK305881] | 105%
O=C(Cn1cc(Br)ccc1=O)NC1CCN(CCc2ccccc2)CC1 [CBK305887] | 99.5%
CCN(Cc1ccc(C#N)cc1F)C(=O)NC(C)c1nncn1C (stereo not drawn) [CBK305888] | 119%
Cc1nc(C)n(C2CN(S(=O)(=O)c3ccc4scnc4c3)C2)n1 [CBK305889] | 95.6%
CCc1onc(C)c1NC(=O)NC1CC2(CCCC2)Oc2ccccc21 (stereo not drawn) [CBK305890] | 97.6%
COC(=O)CCSc1nc(C)nc2c1c(=O)n(C)c(=O)n2CC(C)C [CBK305891] | 82.7%

Same assay, conditions: human, hela cells, % viability, bulk resorufin, single well

SMILES | viability at 28.5 h, 10 µM
COCCn1cc(C(=O)N(CC(N)=O)C2CCCC2)c2ccccc21 [CBK305802] | 84.1%
